In patent publication US9187424B1, “Aryl dihydropyridinones and piperidinone MGAT2 inhibitors” (Bristol-Myers Squibb Company, priority 2011, dated 2015) one finds IC50 data, which are given here for 47 molecules.

Assay [1] concerns the target T1, Human MGAT-2 (Homo sapiens (Human), UniProt Q3SYC2). Nature of the assay: MGAT LCMS Assay (human MGAT-2).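 Further: diolein product quantified by LC/MS with positive APCI, expressed as peak area ratio versus an internal standard, and this ratio used to derive IC50.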 The settings on record: human MGAT-2 membranes expressed in Sf9 cells; 2-oleoylglycerol and oleoyl-Coenzyme A; read-out: h-MGAT2 IC50 (nM) LCMS Assay. The class given is biochemical.
The target of assay [2] is T1, Human MGAT-2. Put plainly: MGAT SPA Assay.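 Further: inhibition scaled between DMSO vehicle as full MGAT2 activity and membranes of uninfected Sf9 cells as blank, IC50 fitted by logistic curve.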 To be noted: membranes from Sf9 cells expressing recombinant human MGAT2; 2-monooleoylglycerol and [3H]-oleoyl-CoA. The class given is biochemical.

Each structure is given as a SMILES string.

T1 sequence (Q3SYC2 whole entry): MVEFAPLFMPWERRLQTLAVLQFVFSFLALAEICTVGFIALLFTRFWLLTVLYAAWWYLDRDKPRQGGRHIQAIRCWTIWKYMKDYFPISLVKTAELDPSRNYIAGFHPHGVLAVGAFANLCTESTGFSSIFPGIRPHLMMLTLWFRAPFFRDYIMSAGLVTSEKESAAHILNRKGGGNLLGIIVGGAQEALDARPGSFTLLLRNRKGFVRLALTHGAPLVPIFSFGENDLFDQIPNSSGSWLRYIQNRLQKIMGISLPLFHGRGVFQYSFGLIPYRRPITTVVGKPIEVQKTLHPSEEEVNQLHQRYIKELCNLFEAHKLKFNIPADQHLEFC

The term IC50 denotes the concentration that inhibits the measured activity by half. For the molecule `COc1ccc(C2=C[C@](c3ccc(OCCCC(F)(F)F)cc3)(C(F)(F)F)NC(=O)C2(F)C#N)cc1` (single isomer, unassigned) [Example 15-1, 3-Fluoro-4-(4-methoxyphenyl)-2-oxo-6-(4-(4,4,4-trifluorobutoxyl)phenyl)-6-(trifluoromethyl)-1,2,3,6-tetrahydropyridine-3-carbonitrile], the values for the half-inhibitory concentration (IC50) in assay [1] and in assay [2] were 12 nM and 3310 nM, respectively.

On to `COc1ccc(NC(=O)C2C(=O)N[C@@](c3ccc(OCCCC(F)(F)F)cc3)(C(F)(F)F)CC2c2ccc(C)cc2)cc1` (single isomer, unassigned) [Example 16-1, N-(4-Methoxyphenyl)-2-oxo-4-p-tolyl-6-(4-(4,4,4-trifluorobutoxyl)phenyl)-6-(trifluoromethyl)piperidine-3-carboxamide], for which the IC50 in assay [1] was 7 nM; in assay [2], 25 nM.

With `COc1ccc(NC(=O)C2C(=O)N[C@@](c3ccc(OCCCC(F)(F)F)cc3)(C(F)(F)F)CC2c2ccc(C)cc2)cc1` (single isomer, unassigned) [Example 16-2, N-(4-Methoxyphenyl)-2-oxo-4-p-tolyl-6-(4-(4,4,4-trifluorobutoxyl)phenyl)-6-(trifluoromethyl)piperidine-3-carboxamide], the results for the IC50 in assay [1] and in assay [2] were 416 nM and 8430 nM, respectively.

`Cc1ccc(C2=C(C#N)C(=O)NC(c3ccc(Br)cc3)(C(F)(F)F)C2)cc1` (centres unmarked) [Example 3, 6-(4-Bromophenyl)-2-oxo-4-p-tolyl-6-(trifluoromethyl)-1,2,5,6-tetrahydropyridine-3-carbonitrile]: the 50% inhibitory concentration (IC50) in assay [2] amounted to 1800 nM.

Take `Cc1ccc(C2=C(C#N)C(=O)NC(c3ccc(O)cc3)(C(F)(F)F)C2)cc1` (centres unmarked) [Example 4, 6-(4-Hydroxyphenyl)-2-oxo-4-p-tolyl-6-(trifluoromethyl)-1,2,5,6-tetrahydro-pyridine-3-carbonitrile]: the IC50 in assay [2] came to 5870 nM.

On to `CCOc1ccc(-c2ccc(C3(C(F)(F)F)CC(c4ccc(C)cc4)=C(C#N)C(=O)N3)cc2)cn1` (centres unmarked) [Example 7, 6-(4-(6-Ethoxypyridin-3-yl)phenyl)-2-oxo-4-p-tolyl-6-(trifluoromethyl)-1,2,5,6-tetrahydropyridine-3-carbonitrile], for which, in assay [2], the IC50 turned out to be 818 nM.

For the molecule `Cc1ccc(C2=C(c3nnc(C(F)(F)F)o3)C(=O)NC(c3ccc(OCCCC(F)(F)F)cc3)(C(F)(F)F)C2)cc1` (centres unmarked) [Example 10, 4-p-Tolyl-6-(4-(4,4,4-trifluorobutoxyl)phenyl)-6-(trifluoromethyl)-3-(5-(trifluoromethyl)-1,3,4-oxadiazol-2-yl)-5,6-dihydropyridin-2(1H)-one], the IC50 was determined as 138 nM in assay [1] and 2720 nM in assay [2].

For the molecule `Cc1ccc(C2=C(C(=O)Nc3ccc(OC(F)(F)F)cc3)C(=O)NC(C)(c3ccc(OCCCC(F)(F)F)cc3)C2)cc1` (centres unmarked) [Example 11, 6-Methyl-2-oxo-4-p-tolyl-6-(4-(4,4,4-trifluorobutoxyl)phenyl)-N-(4-(trifluoromethoxy)-phenyl)-1,2,5,6-tetrahydropyridine-3-carboxamide], the half-inhibitory concentration (IC50) in assay [1] is 13 nM; in assay [2], 48 nM.

Consider `Cc1ccc(C2=C([N+](=O)[O-])C(=O)NC(c3ccc(OCCCC(F)(F)F)cc3)(C(F)(F)F)C2)cc1` (centres unmarked) [Example 13, 3-Nitro-4-p-tolyl-6-(4-(4,4,4-trifluorobutoxyl)phenyl)-6-(trifluoromethyl)-5,6-dihydropyridin-2(1H)-one], for which the concentration for half-maximal inhibition (IC50) in assay [1] came out at 35 nM; in assay [2], 3330 nM.

Turning to `CC1(c2ccc(N3CCOCC3)cc2)CC(c2ccc(N3CCOCC3)cc2)=C(C#N)C(=O)N1` (centres unmarked) [Example 17], the IC50 in assay [2] was 1930 nM.

With `Cc1ccc(C2=C(C#N)C(=O)NC(C)(c3ccc(C)c(C)c3)C2)cc1C` (centres unmarked) [Example 18], in assay [2], the IC50 is 5760 nM.

`CCOc1ccc(C2=C(C#N)C(=O)NC(C)(c3ccc(OCC)cc3)C2)cc1` (centres unmarked) [Example 19]: the IC50 in assay [2] was 2900 nM.

`CC(C)(C)c1ccc(C2=C(C#N)C(=O)NC(C)(c3ccc(C(C)(C)C)cc3)C2)cc1` (centres unmarked) [Example 20]: the IC50 in assay [2] was 3460 nM.

For `Cc1ccc(C2=C(c3nnn[nH]3)C(=O)NC(C)(c3ccc(C)cc3)C2)cc1` (centres unmarked) [Example 21], in assay [2], the IC50 worked out at 913 nM.

For the molecule `Cc1ccc(C2=C(C#N)C(=O)NC(C)(c3ccccc3)C2)cc1` (centres unmarked) [Example 23], the IC50 in assay [2] was 1290 nM.

For `Cc1ccc(C2=C(C#N)C(=O)NC(c3ccc(Cl)cc3)(C(F)(F)F)C2)cc1` (centres unmarked) [Example 24], the 50% inhibitory concentration (IC50) in assay [2] was 1730 nM.

`Cc1ccc(C2=C(C#N)C(=O)NC(c3cccc(F)c3)(C(F)(F)F)C2)cc1` (centres unmarked) [Example 25]: the IC50 in assay [2] was 4570 nM.

With `Cc1ccc(C2=C(C#N)C(=O)NC(c3ccc(F)c(F)c3)(C(F)(F)F)C2)cc1` (centres unmarked) [Example 26], the IC50 in assay [2] is 6430 nM.

Regarding `Cc1ccc(C2=C(C#N)C(=O)NC(c3ccc(F)cc3)(C(F)(F)F)C2)cc1` (centres unmarked) [Example 27], the half-maximal inhibitory concentration (IC50) in assay [2] came to 2520 nM.

In the case of `Cc1ccc(C2=C(C#N)C(=O)NC(c3ccc(N(C)C)cc3)(C(F)(F)F)C2)cc1` (centres unmarked) [Example 31], in assay [2], the IC50 was determined as 1510 nM.

Turning to `Cc1ccc(C2=C(C#N)C(=O)NC(c3cccc(Br)c3)(C(F)(F)F)C2)cc1` (centres unmarked) [Example 32], in assay [2], the IC50 amounted to 9960 nM.

For the molecule `Cc1ccc(C2=C(C#N)C(=O)NC(c3ccc(OCCOC(C)(C)C)cc3)(C(F)(F)F)C2)cc1` (centres unmarked) [Example 34], the IC50 in assay [1] amounted to 126 nM; in assay [2], 656 nM.

Turning to `Cc1ccc(C2=C(C#N)C(=O)NC(c3ccc(OCCC4CCCC4)cc3)(C(F)(F)F)C2)cc1` (centres unmarked) [Example 36], the IC50 came to 57 nM in assay [1] and 396 nM in assay [2].

For `COc1ccc(C2(C(F)(F)F)CC(c3ccc(C)cc3)=C(c3nnn[nH]3)C(=O)N2)cc1` (centres unmarked) [Example 38], in assay [2], the IC50 turned out to be 2140 nM.

For `COc1ccc(C2(C(F)(F)F)CC(c3ccc(C)cc3)=C(C(=O)Nc3ccc(F)cc3)C(=O)N2)cc1` (centres unmarked) [Example 41], the results for the concentration for half-maximal inhibition (IC50) in assay [1] and in assay [2] were 15 nM and 170 nM, respectively.

In the case of `Cc1ccc(C2=C(C#N)C(=O)NC(c3ccc(Oc4ccccc4)nc3)(C(F)(F)F)C2)cc1` (centres unmarked) [Example 44], in assay [2], the concentration for half-maximal inhibition (IC50) came out at 1460 nM.

Take `Cc1ccc(C2=C(C#N)C(=O)NC(c3ccc(Oc4ncccn4)cc3)(C(F)(F)F)C2)cc1` (centres unmarked) [Example 46]: the half-maximal inhibitory concentration (IC50) in assay [2] was determined as 871 nM.

In the case of `Cc1ccc(C2=C(C#N)C(=O)NC(c3ccc(OCc4ccccc4)cc3)(C(F)(F)F)C2)cc1` (centres unmarked) [Example 47], the IC50 in assay [2] turned out to be 756 nM.

Consider `Cc1ccc(C2=C(C(=O)Nc3ccc(F)cc3)C(=O)NC(c3ccc(Oc4ccccc4)cc3)(C(F)(F)F)C2)cc1` (centres unmarked) [Example 48], for which the half-inhibitory concentration (IC50) in assay [1] is 7 nM; in assay [2] it was 226 nM.

As to `Cc1ccc(C2=C(C(=O)Nc3ccc(F)cc3)C(=O)NC(c3ccc(Oc4ccncn4)cc3)(C(F)(F)F)C2)cc1` (centres unmarked) [Example 49], the IC50 in assay [1] was 64 nM; in assay [2], 127 nM.

Turning to `Cc1ccc(C2=C(C(=O)Nc3ccc(F)cc3)C(=O)NC(c3ccc(-c4cnccn4)cc3)(C(F)(F)F)C2)cc1` (centres unmarked) [Example 50], the values for the half-maximal inhibitory concentration (IC50) in assay [1] and in assay [2] were 95 nM and 242 nM, respectively.

Regarding `CCCCCc1ccc(C2(C(F)(F)F)CC(c3ccc(C)cc3)=C(C(=O)Nc3ccc(F)cc3)C(=O)N2)cc1` (centres unmarked) [Example 51], the results for the IC50 in assay [1] and in assay [2] were 13 nM and 63 nM, respectively.

As to `Cc1ccc(C2=C(C(=O)Nc3ccc(F)cc3)C(=O)NC(c3ccc(Oc4ncccn4)cc3)(C(F)(F)F)C2)cc1` (centres unmarked) [Example 52], the IC50 in assay [1] was determined as 99 nM; in assay [2], 477 nM.

Take `Cc1ccc(C2=C(C(=O)Nc3ccc(F)cc3)C(=O)NC(c3ccc(OCc4ccccc4)cc3)(C(F)(F)F)C2)cc1` (centres unmarked) [Example 54]: the IC50 is 20 nM in assay [1] and 258 nM in assay [2].

For `CCCCCNC(=O)C1=C(c2ccc(C)cc2)CC(c2ccc(OCCCC(F)(F)F)cc2)(C(F)(F)F)NC1=O` (centres unmarked) [Example 55], the figures for the concentration for half-maximal inhibition (IC50) in assay [1] and in assay [2] were 20 nM and 846 nM, respectively.

Consider `Cc1ccc(C2=C(C(=O)NCc3ccccc3)C(=O)NC(c3ccc(OCCCC(F)(F)F)cc3)(C(F)(F)F)C2)cc1` (centres unmarked) [Example 56], for which, in assay [2], the concentration for half-maximal inhibition (IC50) was 6550 nM.

Regarding `Cc1ccc(C2=C(C(=O)Nc3ccccc3Cl)C(=O)NC(c3ccc(OCCCC(F)(F)F)cc3)(C(F)(F)F)C2)cc1` (centres unmarked) [Example 60], the IC50 came out at 12 nM in assay [1] and 441 nM in assay [2].

As for `Cc1ccc(C2=C(C(=O)Nc3cccc(Cl)c3)C(=O)NC(c3ccc(OCCCC(F)(F)F)cc3)(C(F)(F)F)C2)cc1` (centres unmarked) [Example 61], the IC50 in assay [2] was 709 nM.

As to `Cc1ccc(C2=C(C(=O)Nc3ccc(Cl)cc3)C(=O)NC(c3ccc(OCCCC(F)(F)F)cc3)(C(F)(F)F)C2)cc1` (centres unmarked) [Example 62], the IC50 came to 24 nM in assay [1] and 156 nM in assay [2].

As to `COc1cccc(C2=C(C#N)C(=O)NC(c3ccc(OCCCC(F)(F)F)cc3)(C(F)(F)F)C2)c1` (centres unmarked) [Example 64], the results for the concentration for half-maximal inhibition (IC50) in assay [1] and in assay [2] were 280 nM and 761 nM, respectively.

Regarding `N#CC1=C(c2cccc(Cl)c2)CC(c2ccc(OCCCC(F)(F)F)cc2)(C(F)(F)F)NC1=O` (centres unmarked) [Example 68], the IC50 in assay [1] was 1280 nM; in assay [2], 7520 nM.

For the molecule `N#CC1=C(c2cccc(C#N)c2)CC(c2ccc(OCCCC(F)(F)F)cc2)(C(F)(F)F)NC1=O` (centres unmarked) [Example 69], the IC50 in assay [1] is 983 nM; in assay [2] it was 9230 nM.

For the molecule `Cc1ccc(C2=CC(=O)NC(c3ccc(OCCCC(F)(F)F)cc3)(C(F)(F)F)C2)cc1` (centres unmarked) [Example 70], the IC50 in assay [2] amounted to 3400 nM.

Take `N#CC1=C(c2ccc3ccccc3c2)CC(c2ccc(OCCCC(F)(F)F)cc2)(C(F)(F)F)NC1=O` (centres unmarked) [Example 73]: the IC50 in assay [1] came to 15 nM; in assay [2], 684 nM.

Take `N#CC1=C(c2ccc(C(F)(F)F)cc2)CC(c2ccc(OCCCC(F)(F)F)cc2)(C(F)(F)F)NC1=O` (centres unmarked) [Example 75]: the half-inhibitory concentration (IC50) was 209 nM in assay [1] and 873 nM in assay [2].

`COc1ccc(C2=C(C#N)C(=O)NC(c3ccc(OCCCC(F)(F)F)cc3)(C(F)(F)F)C2)c(F)c1` (centres unmarked) [Example 81]: the IC50 in assay [1] was 4 nM; in assay [2] it was 55 nM.

Consider `Cc1ccc(C2=C(C3N=NN=N3)C(=O)NC(c3ccc(OCCCC(F)(F)F)cc3)(C(F)(F)F)C2)cc1` (centres unmarked) [Example 113], for which the concentration for half-maximal inhibition (IC50) in assay [2] was determined as […].
